This is an account of results in patent US11377473B2, “Albumin-binding prodrugs of auristatin E derivatives” (priority 2017, dated 2022).

The nature of series [1]: pH-dependent release of free drug from human serum albumin conjugates. The class given is physicochemical. The following applies: upon changing the pH from 7.4 to 4.1, 37° C., up to 24 hours. How it is done: The albumin-binding auristatin-Sulf07 derivatives were prepared as 2 mM stock solutions in anhydrous DMSO.
Release at pH 7.4: 442.4 μL of 1000 μM of reduced human serum albumin (881 μM free cysteine-34) and 727.6 μL PBS Buffer (4 mM sodium phosphate pH 7.4 and 150 mM NaCl) were added to a sealed HPLC vial and incubated at 37° C. for 30 minutes. After 30 minutes incubation 130 μL of the appropriate DMSO drug stock solution was added to the pre-incubated vial to produce a 200 μM solution of auristatin drug and a 300 μM solution of albumin (free cysteine-34). The mixture was allowed to react for 10 minutes at 37° C. and then analyzed by HPLC (method 7, 20 μL injection). Injections were repeated after 1 hour and then every hour up to 24 hours.
Release at pH 4.1: 408.5 μL of 1000 μM of reduced human serum albumin (881 μM free cysteine-34) and 539.4 μL of water were added to a sealed HPLC vial and incubated at 37° C. for 30 minutes. In a separate vial 190 μL sodium acetate buffer 50 mM pH 3.0 and 24.7 μL 1 M HCl were incubated at 37° C. for 30 minutes. […] The resulting solution was analyzed directly by HPLC (method 7). […]
The percentage of released free drug was determined by HPLC with a calibration curve (200 μM, 100 μM, 50 μM, 25 μM and 12.5 μM) for the free drugs i.e. AE-Keto for AE-Keto-Sulf07 and AE-Ester for AE-Ester-Sulf07. […]

Series [2] deals with panel of 6 selected human cancer cell lines (LXFL 1674L, SW-620, CAL-27, RKO, MDA-MB-468, SK-OV-3). The series is described as follows: IC50 determination in a panel of tumor cell lines (CellTiter-Blue Cell Viability assay). The series is classed as cell-based. How it is done:
Samples were provided to Charles River Discovery Research Services Germany GmbH as frozen stock solutions in pharmaceutical grade DMSO (Sigma-Aldrich, Taufkirchen, Germany). On each day of the experiment, a frozen aliquot of stock solution was thawed. Subsequent serial dilutions were realized with complete RPMI 1640 cell culture medium using an intermediate dilution plate. 10 μL taken from the intermediate dilution plate were then transferred to 140 μL/well of the cell culture plate. Cells were treated with the test compounds at 10 concentrations in triplicate in half-log steps from 0.003 nM to 100 nM for a period of 96 h.
The compounds were tested in a panel of 6 selected human cancer cell lines by using CellTiter-Blue® Cell Viability assay (Promega, Mannheim, Germany). IC values are reported as absolute IC50 values, obtained for a test compound as the geometric mean of IC50 values over all cell lines tested.
The cell lines used were LXFL 1674L (established from patient-derived xenograft at Charles River Discovery Research Services Germany GmbH), SW-620 (kindly provided by the NCI, Bethesda, Md., USA), CAL-27 (purchased from DSMZ, Deutsche Sammlung von Mikroorganismen und Zellkulturen, Braunschweig, Germany), RKO, MDA-MB-468, and SK-OV-3 (from ATCC, American Type Culture Collection, Rockville, Md., USA). Authenticity of all cell lines was proven at the DSMZ by STR (short tandem repeat) analysis, a PCR based DNA-fingerprinting methodology. Cell lines were routinely passaged once or twice weekly and maintained in culture for up to 20 passages. Cells were grown at 37° C. in a humidified atmosphere with 5% CO2 in RPMI 1640 medium (25 mM HEPES, with L-glutamine, Biochrom, Berlin, Germany) supplemented with 10% (v/v) fetal calf serum (Sigma-Aldrich, Taufkirchen, Germany) and 0.1 mg/mL gentamicin (Life Technologies, Karlsruhe, Germany). The CellTiter-Blue® Cell Viability Assay was used according to manufacturer's instructions. Briefly, cells were harvested from exponential phase cultures, counted and plated in 96-well flat-bottom microtiter plates at a cell density of 4,000-10,000 cells/well depending on the cell line's growth rate. After a 24 h recovery period to allow the cells to resume exponential growth, 10 μL of culture medium (six control wells/plate) or of culture medium with test compound were added. The compounds were applied at 10 concentrations in triplicate in half-log increments up to 100 nM and cells were treated continuously for 96 h. […] Following an incubation period of up to 4 h, fluorescence (FU) was measured by using the Enspire Multimode Plate Reader (excitation λ=531 nm, emission λ=615 nm). IC50 values were determined with GraphPad Prism bioanalytic software (San Diego, Calif., USA).
A general note: Resazurin is reduced to fluorescent resorufin, in cell work by metabolically active cells.

Series [3] is described as follows: Reconstitution stability (maleimide hydrolysis, loss of API) in reconstitution buffer. The series is classed as physicochemical. The following applies: after 4 hours incubation at room temperature in reconstitution buffer (50 mM sodium phosphate pH 7.65 containing 4% HPβCD and 5% sucrose). How it is done: The albumin-binding AE-Keto drug derivatives were reconstituted in 50 mM sodium phosphate buffer pH 7.6 which contained 5% sucrose (w/v) and 2% 2-hydroxypropyl-β-cyclodextrin (2-HPβCD). Both drugs were reconstituted at a concentration of 1277 μM (equal to 4.5 mg/kg murine xenograft dose), the dissolution of both drugs was confirmed by HPLC (method 2, 254 nm). Stability of the reconstituted drugs was monitored by HPLC at room temperature every 15 minutes over a period of 240 minutes for maleimide hydrolysis and loss of API.
The albumin-binding AE-Ester derivatives were reconstituted in 50 mM sodium phosphate buffer pH 7.6 which contained 5% sucrose (w/v) and 4% 2-HPβCD. Both drugs were reconstituted at a concentration of 655 μM (equal to 2.4 mg/kg murine xenograft dose), the dissolution of both drugs was confirmed by HPLC (method 2, 310 nm). Stability of the reconstituted drugs was monitored by HPLC at room temperature every 15 minutes over a period of 240 minutes for maleimide hydrolysis and loss of API.

The mark [4] stands for this setting: Homo sapiens, 96 h, read-out: Geometric mean IC50, geometric mean over six cell lines, 96 h treatment.

Where two headings read alike, the source gives them in different places.

In general, IC50 refers to the midpoint of a concentration-inhibition curve. As for `CC[C@H](C)[C@@H]([C@@H](CC(=O)N1CCC[C@H]1[C@H](OC)[C@@H](C)C(=O)N[C@H](C)[C@@H](OC(=O)c1ccc(C(C)=O)cc1)c1ccccc1)OC)N(C)C(=O)[C@@H](NC(=O)[C@H](C(C)C)N(C)C)C(C)C` (stereo in doubt) [AE-Ester, (1S,2R)-2-((3R)-3-((S)-1-((3R,4S,5R)-4-((S)-2-((S)-2-(dimethylamino)-3-methylbutanamido)-N,3-dimethylbutanamido)-3-methoxy-5-methylheptanoyl)pyrrolidin-2-yl)-3-methoxy-2-methylpropanamido)-1-phenylpropyl 4-acetylbenzoate], in series [1], the “percent of free drug released from albumin conjugate” value was “higher than the percent of AE-Keto released”. Moreover, the IC50 in series [2] (setting [4]) was 0.339 nM; in series [2] (read-out: Geometric mean IC50, geometric mean over six cell lines, 96 h treatment), 0.399 ± 0.00019 nM. `CC[C@H](C)[C@@H]([C@@H](CC(=O)N1CCC[C@H]1[C@H](OC)[C@@H](C)C(=O)N[C@H](C)[C@@H](OC(=O)c1ccc(C(C)=NNC(=O)CCCCCN2C(=O)C=CC2=O)cc1)c1ccccc1)OC)N(C)C(=O)[C@@H](NC(=O)[C@H](C(C)C)N(C)C)C(C)C` [AE-Ester-EMCH, reference compound] yielded a maleimide hydrolyzed in series [3] of 11.0%. As for `CC[C@H](C)[C@@H]([C@@H](CC(=O)N1CCC[C@H]1[C@H](OC)[C@@H](C)C(=O)N[C@H](C)C(=O)c1ccccc1)OC)N(C)C(=O)[C@@H](NC(=O)[C@H](C(C)C)N(C)C)C(C)C` [AE-Keto, (S)-1-(((S)-1-(((3R,4S,5S)-3-methoxy-1-((S)-2-((1R,2R)-1-methoxy-2-methyl-3-oxo-3-(((R)-1-oxo-1-phenylpropan-2-yl)amino)propyl)pyrrolidin-1-yl)-5-methyl-1-oxoheptan-4-yl)(methyl)amino)-3-methyl-1-oxobutan-2-yl)amino)-N,N,3-trimethyl-1-oxobutan-2-aminium 2,2,2-trifluoroacetate], the IC50 in series [2] (setting [4]) was found to be 0.259 nM. The compound `CC[C@H](C)[C@@H]([C@@H](CC(=O)N1CCC[C@H]1[C@H](OC)[C@@H](C)C(=O)N[C@H](C)C(=NNC(=O)CCCCCN1C(=O)C=CC1=O)c1ccccc1)OC)N(C)C(=O)[C@@H](NC(=O)[C@H](C(C)C)N(C)C)C(C)C` [AE-Keto-EMCH, reference compound] came in with a maleimide hydrolyzed in series [3] of 5.4%.
